Consider 30 compounds from patent publication US7294637B2 (Sepracor, Inc., priority 2000, dated 2007).

In one assay the target is dopamine transporter (Homo sapiens, UniProt Q01959). Put plainly: DA uptake: displacement of dopamine ligands in vitro (methods of Gu et al.).
Assay [1] addresses norepinephrine transporter (Homo sapiens, UniProt P23975). Put plainly: NE uptake: displacement of norephinephrine ligands in vitro (methods of Galli et al.). In kind it is binding.
For the next assay, the target named is serotonin transporter (Homo sapiens, UniProt P31645). Put plainly: 5-HT uptake: displacement of serotonin ligands in vitro (methods of Gu et al.). Type of assay: binding.
serotonin transporter, sequence (P31645 whole entry): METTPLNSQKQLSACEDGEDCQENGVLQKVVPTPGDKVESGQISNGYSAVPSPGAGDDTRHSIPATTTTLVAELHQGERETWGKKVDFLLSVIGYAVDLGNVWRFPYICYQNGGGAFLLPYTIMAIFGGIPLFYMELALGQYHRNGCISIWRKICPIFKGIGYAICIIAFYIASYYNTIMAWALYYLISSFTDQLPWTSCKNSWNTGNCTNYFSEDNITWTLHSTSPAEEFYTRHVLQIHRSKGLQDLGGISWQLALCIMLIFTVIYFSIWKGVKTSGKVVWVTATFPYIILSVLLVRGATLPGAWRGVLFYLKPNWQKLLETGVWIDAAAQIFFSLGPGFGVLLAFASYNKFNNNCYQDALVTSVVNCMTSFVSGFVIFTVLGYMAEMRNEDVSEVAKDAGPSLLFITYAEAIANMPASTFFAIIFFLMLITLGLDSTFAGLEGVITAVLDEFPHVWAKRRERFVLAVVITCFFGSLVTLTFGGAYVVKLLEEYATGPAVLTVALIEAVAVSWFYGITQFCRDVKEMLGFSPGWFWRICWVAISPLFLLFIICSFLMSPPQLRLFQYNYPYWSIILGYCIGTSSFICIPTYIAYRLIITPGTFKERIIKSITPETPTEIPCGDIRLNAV
[2] abbreviates: DA Uptake, Uptake Profile (IC50, nM), displacement of dopamine ligands in vitro.
The mark [3] stands for this setting: NE Uptake, Uptake Profile (IC50, nM).
Setting [4] is: displacement of serotonin ligands in vitro, read-out: 5-HT Uptake, Uptake Profile (IC50).
Setting [5] is: read-out: NE Uptake, Uptake Profile (IC50).
[6] abbreviates: 5-HT Uptake, Uptake Profile (IC50, nM).

A word on the IC50: it is the midpoint of a concentration-inhibition curve.

Like-named read-outs stand apart in the source and are kept apart here.

dopamine transporter, sequence (Q01959 whole entry): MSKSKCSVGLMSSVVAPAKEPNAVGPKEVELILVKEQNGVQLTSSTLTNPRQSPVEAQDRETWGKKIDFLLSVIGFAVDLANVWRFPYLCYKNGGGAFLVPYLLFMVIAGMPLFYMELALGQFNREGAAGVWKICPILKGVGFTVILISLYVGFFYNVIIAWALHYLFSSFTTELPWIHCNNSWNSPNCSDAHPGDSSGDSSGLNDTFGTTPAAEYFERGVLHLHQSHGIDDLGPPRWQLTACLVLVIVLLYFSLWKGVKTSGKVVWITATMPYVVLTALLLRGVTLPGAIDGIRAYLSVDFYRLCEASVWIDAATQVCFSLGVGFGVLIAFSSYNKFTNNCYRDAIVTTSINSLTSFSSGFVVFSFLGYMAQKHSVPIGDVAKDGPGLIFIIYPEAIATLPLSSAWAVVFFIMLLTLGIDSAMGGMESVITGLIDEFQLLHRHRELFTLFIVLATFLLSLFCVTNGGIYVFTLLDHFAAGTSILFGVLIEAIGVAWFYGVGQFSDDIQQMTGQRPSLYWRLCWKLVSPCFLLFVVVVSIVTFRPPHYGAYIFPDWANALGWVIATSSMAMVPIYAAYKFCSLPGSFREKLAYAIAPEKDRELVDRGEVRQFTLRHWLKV
norepinephrine transporter, sequence (P23975 whole entry): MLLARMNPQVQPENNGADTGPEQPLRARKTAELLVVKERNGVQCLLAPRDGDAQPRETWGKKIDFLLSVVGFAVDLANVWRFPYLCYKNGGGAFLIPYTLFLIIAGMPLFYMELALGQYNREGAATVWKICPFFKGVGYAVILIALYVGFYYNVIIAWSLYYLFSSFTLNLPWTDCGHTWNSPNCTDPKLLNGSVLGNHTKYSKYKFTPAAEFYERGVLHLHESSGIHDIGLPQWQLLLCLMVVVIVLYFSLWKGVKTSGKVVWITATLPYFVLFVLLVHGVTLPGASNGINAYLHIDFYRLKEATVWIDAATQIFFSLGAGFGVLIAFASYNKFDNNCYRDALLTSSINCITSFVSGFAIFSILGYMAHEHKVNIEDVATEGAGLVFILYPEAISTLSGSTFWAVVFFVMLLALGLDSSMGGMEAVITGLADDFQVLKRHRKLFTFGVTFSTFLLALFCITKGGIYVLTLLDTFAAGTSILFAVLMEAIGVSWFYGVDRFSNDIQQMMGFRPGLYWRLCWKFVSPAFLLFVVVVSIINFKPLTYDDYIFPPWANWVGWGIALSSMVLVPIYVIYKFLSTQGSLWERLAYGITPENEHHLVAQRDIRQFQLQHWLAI

As for `OC(CN1CCCC(CCc2ccc(C(F)(F)F)cc2)C1)c1ccc(Cl)cc1` (single isomer, unassigned) [compound 153, 1-(4-Chloro-phenyl)-2-{3-[2-(4-trifluoromethyl-phenyl)-ethyl]-piperidin-1-yl}-ethanol], the IC50 at dopamine transporter (setting [2]) is less than 100 nM; in assay [1] (setting [3]), less than 100 nM; on serotonin transporter (setting [4]), less than 10 nM.
For the compound `CO[C@@H](CN1CCC[C@@H](COc2ccc(C(F)(F)F)cc2)C1)C1(c2ccc(Cl)cc2)CCC1` [compound 160], the half-inhibitory concentration (IC50) on dopamine transporter (setting [2]) was less than 100 nM; in assay [1] (setting [3]) it was greater than 1000 nM; on serotonin transporter (setting [4]), less than 1000 nM.
In the case of `OC1(COc2ccc(C(F)(F)F)cc2)CCCN(CC2(c3ccc(Cl)cc3)CCC2)C1` (stereo not drawn) [compound 167, [1-(4-Chloro-phenyl)-cyclobutylmethyl]-3-(4-trifluoromethyl-phenoxymethyl)-piperidin-3-ol], the IC50 at dopamine transporter (setting [2]) is greater than 1000 nM; in assay [1] (setting [5]), greater than 1000 nM; on serotonin transporter (read-out: 5-HT Uptake, Uptake Profile (IC50)), greater than 1000 nM.
In the case of `O=C(CC1CCCN(CC2(c3ccc(Cl)cc3)CCC2)C1)c1ccccc1` (stereo in doubt) [compound 183, (S)-[2-{1-[1-(4-Chloro-phenyl)-cyclobutylmethyl]-piperidin-3-yl}-1-phenyl-ethanone]], the IC50 (on dopamine transporter (setting [2]); in assay [1] (setting [3]); on serotonin transporter (setting [4])) was less than 1000 nM each time.
For `COc1ccccc1C1(C(O)CN2CCCC(COc3ccc4c(c3)OCO4)C2)CCC1` (stereo not drawn) [compound 232, 2-[3-(Benzo[1,3]dioxol-5-yloxymethyl)-piperidin-1-yl]-1-[1-(2-methoxy-phenyl)-cyclobutyl]-ethanol], the IC50 (on dopamine transporter (setting [2]); in assay [1] (setting [3]); at serotonin transporter (setting [4])) was less than 1000 nM each time.
Turning to `FC(F)(F)c1ccc(OCC2CCCN(CCc3c[nH]c4ccccc34)C2)cc1` (stereo not drawn) [compound 180, 3-{2-[3-(4-Trifluoromethyl-phenoxymethyl)-piperidin-1-yl]-ethyl}-1H-indole], the IC50 (on dopamine transporter (setting [2]); in assay [1] (setting [3]); at serotonin transporter (setting [4])) was less than 1000 nM each time.
`COC(CN1CCC[C@@H](CCc2ccccc2)C1)c1ccc(Cl)cc1` (stereo partly drawn) [compound 196, 1-[2-(4-Chloro-phenyl)-2-methoxy-ethyl]-3-(R)-phenethyl-piperidine]: the IC50 at dopamine transporter (setting [2]) was less than 100 nM; in assay [1] (setting [3]), less than 100 nM; on serotonin transporter (setting [4]) it was less than 10 nM.
Take `FC(F)(F)c1ccc(OCC2CCCN(CC3COc4ccccc4O3)C2)cc1` (single isomer, unassigned) [compound 176, 1-(2,3-Dihydro-benzo[1,4]dioxin-2-ylmethyl)-3-(4-trifluoromethyl-phenoxymethyl)-piperidine]: the IC50 on dopamine transporter (setting [2]) was less than 1000 nM; in assay [1] (setting [3]), greater than 1000 nM; on serotonin transporter (setting [4]), less than 1000 nM.
As for `O=C(N1CCCOC(COc2ccc(C(F)(F)F)cc2)C1)C1(c2ccc(Cl)cc2)CCC1` (stereo not drawn) [compound 16, [1-(4-Chloro-phenyl)-cyclobutyl]-[2-(4-trifluoromethyl-phenoxymethyl)-[1,4]oxazepan-4-yl]-methanone], the IC50 (on dopamine transporter; in assay [1] (setting [5]); at serotonin transporter (setting [4])) was greater than 1000 nM in each case.
With `FC(F)(F)c1cc(COC2CCCN(CC3(c4ccc(Cl)cc4)CCC3)C2)cc(C(F)(F)F)c1` (stereo not drawn) [compound 189, 3-(3,5-Bis-trifluoromethyl-benzyloxy)-1-[1-(4-chloro-phenyl)-cyclobutylmethyl]-piperidine], the IC50 (on dopamine transporter (setting [2]); in assay [1] (setting [5]); at serotonin transporter (setting [4])) was greater than 1000 nM throughout.
With `CN(C)CC(Oc1ccc(C(F)(F)F)cc1)C1CCCN(C(=O)C2(c3ccc(Cl)cc3)CCC2)C1` (racemic) [compound 173], the results for the IC50 (on dopamine transporter (setting [2]); in assay [1] (setting [3]); at serotonin transporter (setting [4])) were greater than 1000 nM, greater than 1000 nM and less than 100 nM, respectively.
Regarding `FC(F)(F)c1ccc(OC[C@@H]2CCCN(CC3(c4ccc(Cl)cc4)CCC3)C2)cc1` [compound 76], the IC50 at dopamine transporter (setting [2]) is less than 1000 nM; in assay [1] (setting [3]), less than 1000 nM; on serotonin transporter (setting [6]), greater than 1000 nM.
For the compound `OC(CN1CCCC(CCc2ccc(C(F)(F)F)cc2)C1)C1(c2ccc(Cl)cc2)CCC1` (single isomer, unassigned) [compound 194, 1-[1-(4-Chloro-phenyl)-cyclobutyl]-2-{3-[2-(4-trifluoromethyl-phenyl)-ethyl]-piperidin-1-yl}-ethanol], the IC50 was less than 10 nM on dopamine transporter (setting [2]), less than 100 nM in assay [1] (setting [3]) and less than 1000 nM on serotonin transporter (setting [4]).
Consider `FC(F)(F)c1ccc(OCC2CCCCN(CC3(c4ccc(Cl)cc4)CCC3)C2)cc1` (stereo not drawn) [compound 168, 1-[1-(4-Chloro-phenyl)-cyclobutylmethyl]-3-(4-trifluoromethyl-phenoxymethyl)-azepane], for which the half-inhibitory concentration (IC50) on dopamine transporter (setting [2]) is less than 100 nM; in assay [1] (setting [3]), less than 1000 nM; at serotonin transporter (setting [4]), greater than 1000 nM.
With `O=C(CN1CCCC(CCc2ccc(C(F)(F)F)cc2)C1)C1(c2ccc(Cl)cc2)CCC1` (stereo not drawn) [compound 155, 1-[1-(4-Chloro-phenyl)-cyclobutyl]-2-{3-[2-(4-trifluoromethyl-phenyl)-ethyl]-piperidin-1-yl}-ethanone], the results for the IC50 (on dopamine transporter (setting [2]); in assay [1] (setting [3]); at serotonin transporter (setting [4])) were less than 100 nM, greater than 1000 nM and greater than 1000 nM, respectively.
For the compound `OC(CN1CCCC(CCc2ccc(C(F)(F)F)cc2)C1)C1(c2ccc(Cl)cc2)CCC1` (single isomer, unassigned) [compound 193, 1-[1-(4-Chloro-phenyl)-cyclobutyl]-2-{3-[2-(4-trifluoromethyl-phenyl)-ethyl]-piperidin-1-yl}-ethanol], the IC50 on dopamine transporter (setting [2]) is less than 10 nM; in assay [1] (setting [3]), less than 10 nM; at serotonin transporter (setting [4]), less than 1000 nM.
Take `O=C(CN1CCCC(COc2ccccc2)C1)c1ccc(Cl)cc1` (stereo not drawn) [compound 32, 1-(4-Chloro-phenyl)-2-(3-phenoxymethyl-piperidin-1-yl)-ethanone]: the values for the IC50 (at dopamine transporter (setting [2]); in assay [1] (setting [3]); on serotonin transporter (setting [6])) were greater than 1000 nM, less than 1000 nM and greater than 1000 nM, respectively.
On to `O=C(N1CCCC(CO)C1)C1(c2ccc(Cl)cc2)CCC1` (stereo not drawn) [compound 1, [1-(4-chloro-phenyl)-cyclobutyl]-(3-hydroxymethylpiperidin-1yl)-methadone], for which the IC50 (at dopamine transporter (setting [2]); in assay [1] (setting [3]); on serotonin transporter (setting [4])) was greater than 1000 nM in each case.
In the case of `COc1ccc(C2(CN3CCC[C@H](COc4ccc(OC(F)(F)F)cc4)C3)CCC2)cc1` [compound 171, (S)-1-[1-(4-Methoxy-phenyl)-cyclobutylmethyl]-3-(4-trifluoromethoxy-phenoxymethyl)-piperidine], the IC50 is less than 10 nM on dopamine transporter (setting [2]), less than 1000 nM in assay [1] (setting [3]) and less than 1000 nM on serotonin transporter (setting [4]).
`CO[C@H](CN1CCC[C@@H](COc2ccc(C(F)(F)F)cc2)C1)C1(c2ccc(Cl)cc2)CCC1` [compound 161]: the IC50 is less than 10 nM on dopamine transporter (setting [2]), less than 1000 nM in assay [1] (setting [3]) and less than 1000 nM on serotonin transporter (setting [4]).
Turning to `OC(CN1CCCC(COc2ccc(C(F)(F)F)cc2)C1)C1(c2ccc(C(F)(F)F)cc2)CCC1` (stereo not drawn) [compound 166], the figures for the IC50 (on dopamine transporter (setting [2]); in assay [1] (setting [3]); at serotonin transporter (setting [4])) were less than 10 nM, less than 100 nM and greater than 1000 nM, respectively.
Consider `OC(CN1CCCC(CCc2ccccc2)C1)c1ccc(Cl)cc1` (single isomer, unassigned) [compound 141, 1-(4-Chloro-phenyl)-2-(3-phenethyl-piperidin-1-yl)-ethanol], for which the IC50 (on dopamine transporter (setting [2]); in assay [1] (setting [3]); at serotonin transporter (setting [4])) was less than 1000 nM throughout.
For the compound `FC(F)(F)c1ccc(OCC2CCCN(CC3COc4ccccc4O3)C2)cc1` (single isomer, unassigned) [compound 177, 1-(2,3-Dihydro-benzo[1,4]dioxin-2-ylmethyl)-3-(4-trifluoromethyl-phenoxymethyl)-piperidine], the values for the IC50 (at dopamine transporter (setting [2]); in assay [1] (setting [3]); at serotonin transporter (setting [4])) were greater than 1000 nM, greater than 1000 nM and less than 1000 nM, respectively.
For the compound `CC(O)(C[C@H]1CCCN(CC2(c3ccc(Cl)cc3)CCC2)C1)c1ccccc1` (stereo in doubt) [compound 185, (S)-[1-{1-[1-(4-Chloro-phenyl)-cyclobutylmethyl]-piperidin-3-yl}-2-phenyl-propan-2-ol]], the IC50 was less than 1000 nM on dopamine transporter (setting [2]), greater than 1000 nM in assay [1] (setting [5]) and greater than 1000 nM at serotonin transporter (setting [4]).
In the case of `OC(CN1CCCC(COc2ccccc2)C1)C1(c2ccc(Cl)cc2)CCC1` (stereo not drawn) [compound 21, 1-[1-(4-Chloro-phenyl)cyclobutyl]-2-(3-phenoxymethylpiperidin-1-yl)ethanol], the figures for the concentration for half-maximal inhibition (IC50) (at dopamine transporter (setting [2]); in assay [1] (setting [3]); on serotonin transporter (setting [4])) were less than 100 nM, less than 100 nM and less than 1000 nM, respectively.
With `CC(C)(CN1CCCC(CO)C1)c1ccc(Cl)cc1` (stereo not drawn) [compound 80], the IC50 (on dopamine transporter (setting [2]); in assay [1] (setting [5]); at serotonin transporter (setting [4])) was greater than 1000 nM each time.
For the compound `OC1CCCN(CC2(c3ccc(Cl)cc3)CCC2)C1` (stereo not drawn) [compound 89, 1-[1-(4-Chlorophenyl)cyclobutylmethyl]piperidin-3-ol], the 50% inhibitory concentration (IC50) at dopamine transporter (setting [2]) was less than 1000 nM; in assay [1] (setting [3]), less than 1000 nM; on serotonin transporter (setting [4]) it was greater than 1000 nM.
As to `FC(F)(F)c1ccc(OCC2CN(CC3(c4ccc(Cl)cc4)CCC3)CCCO2)cc1` (stereo not drawn) [compound 11], the IC50 on dopamine transporter (setting [2]) is less than 1000 nM; in assay [1] (setting [3]) it was greater than 1000 nM; at serotonin transporter (setting [4]), greater than 1000 nM.
In the case of `OC(CN1CCCC(CCc2ccc(C(F)(F)F)cc2)C1)c1ccc(Cl)cc1` (single isomer, unassigned) [compound 151, 1-(4-Chloro-phenyl)-2-{3-[2-(4-trifluoromethyl-phenyl)-ethyl]-piperidin-1-yl}-ethanol], the IC50 (on dopamine transporter (setting [2]); in assay [1] (setting [3]); at serotonin transporter (setting [4])) was less than 1000 nM throughout.
Take `FC(F)(F)c1ccc(COC2CCCN(CC3(c4ccc(Cl)cc4)CCC3)C2)cc1` (stereo not drawn) [compound 107, 1-[1-(4-Chloro-phenyl)-cyclobutylmethyl]-3-(4-trifluoromethyl-benzyloxy)-piperidine]: the IC50 at dopamine transporter (setting [2]) was less than 1000 nM; in assay [1] (setting [3]), less than 1000 nM; on serotonin transporter (setting [4]) it was greater than 1000 nM.
